Measured values taken from patent publication US20110086889A1, “TETRAZOLE COMPOUNDS AS OREXIN RECEPTOR ANTAGONISTS” (priority 2009, published 2011).

Legend:
[1] = cited from earlier work
[2] = rat; cited from earlier work
[3] = rat model; cited from earlier work
human orexin-2 receptor = target: T1, human orexin-2 receptor (Homo sapiens, UniProt O43614); assay: FLIPR calcium assay, orexin receptor antagonistic activity, CHO cells expressing the human orexin-2 receptor; format: cell-based; conditions: 3 nM orexin-A as agonist, some values geometric mean of n = 2 or 3, read-out: OX2 IC50
T1 construct: expressed in transfected cells; host or cells: Chinese hamster ovary (CHO) cells, grown under G418 selection
T1 sequence (O43614 1-444): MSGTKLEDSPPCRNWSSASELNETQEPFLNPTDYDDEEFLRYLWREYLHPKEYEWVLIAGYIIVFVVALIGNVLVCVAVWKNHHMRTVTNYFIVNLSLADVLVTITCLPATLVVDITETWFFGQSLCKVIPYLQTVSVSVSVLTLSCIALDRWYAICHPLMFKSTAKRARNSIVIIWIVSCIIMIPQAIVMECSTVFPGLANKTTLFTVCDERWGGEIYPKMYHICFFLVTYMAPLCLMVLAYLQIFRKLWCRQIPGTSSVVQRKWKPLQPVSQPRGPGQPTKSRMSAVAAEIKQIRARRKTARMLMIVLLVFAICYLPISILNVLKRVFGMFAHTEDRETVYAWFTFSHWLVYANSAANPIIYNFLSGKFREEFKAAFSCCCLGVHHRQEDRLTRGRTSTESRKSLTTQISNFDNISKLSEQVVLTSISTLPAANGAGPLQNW
Description: (§1) The orexin receptor antagonistic activity of the compounds of formula (I) is determined in accordance with the following experimental method.
(§2) Chinese hamster ovary (CHO) cells expressing the human orexin-1 receptor and the human orexin-2 receptor, respectively, are grown in culture medium (Ham F-12 with L-Glutamine) containing 300 μg/ml G418, 100 U/ml penicillin, 100 μg/ml streptomycin and 10% heat inactivated fetal calf serum (FCS). The cells are seeded at 20,000 cells/well into 384-well black clear bottom sterile plates (Greiner). The seeded plates are incubated overnight at 37° C. in 5% CO2. Human orexin-A as an agonist is prepared as 1 mM stock solution in MeOH:water (1:1), diluted in HBSS containing 0.1% bovine serum albumin (BSA), NaHCO3: 0.375 g/l and 20 mM HEPES for use in the assay at a final concentration of 3 nM.
(§3) Antagonists are prepared as 10 mM stock solution in DMSO, then diluted in 384-well plates using DMSO followed by a transfer of the dilutions into in HBSS containing 0.1% bovine serum albumin (BSA), NaHCO3: 0.375 g/l and 20 mM HEPES. On the day of the assay, 50 μl of staining buffer (HBSS containing 1% FCS, 20 mM HEPES, NaHCO3: 0.375 g/l, 5 mM probenecid (Sigma) and 3 μM of the fluorescent calcium indicator fluo-4 AM (1 mM stock solution in DMSO, containing 10% pluronic) is added to each well. The 384-well cell-plates are incubated for 50 min at 37° C. in 5% CO2 followed by equilibration at r.t. for 30-120 min before measurement.
(§4) Within the Fluorescent Imaging Plate Reader (FLIPR Tetra, Molecular Devices), antagonists are added to the plate in a volume of 10 μl/well, incubated for 10 min and finally 10 μl/well of agonist is added. Fluorescence is measured for each well at 1 second intervals, and the height of each fluorescence peak is compared to the height of the fluorescence peak induced by 3 nM orexin-A with vehicle in place of antagonist. For each antagonist, the IC50 value (the concentration of compound needed to inhibit 50% of the agonistic response) is determined and may be normalized using the obtained IC50 value of a on-plate reference compound. Optimized conditions were achieved by adjustment of pipetting speed and cell splitting regime. The calculated IC50 values of the compounds may fluctuate depending on the daily cellular assay performance. Fluctuations of this kind are known to those skilled in the art.

human orexin-1 receptor = target: T2, human orexin-1 receptor (Homo sapiens, UniProt O43613); assay: FLIPR calcium assay, orexin receptor antagonistic activity, CHO cells expressing the human orexin-1 receptor; format: cell-based; conditions: 3 nM orexin-A as agonist, some values geometric mean of n = 2 or 3, read-out: OX1 IC50
T2 construct: expressed in transfected cells; host or cells: Chinese hamster ovary (CHO) cells, grown under G418 selection
T2 sequence (O43613 1-425): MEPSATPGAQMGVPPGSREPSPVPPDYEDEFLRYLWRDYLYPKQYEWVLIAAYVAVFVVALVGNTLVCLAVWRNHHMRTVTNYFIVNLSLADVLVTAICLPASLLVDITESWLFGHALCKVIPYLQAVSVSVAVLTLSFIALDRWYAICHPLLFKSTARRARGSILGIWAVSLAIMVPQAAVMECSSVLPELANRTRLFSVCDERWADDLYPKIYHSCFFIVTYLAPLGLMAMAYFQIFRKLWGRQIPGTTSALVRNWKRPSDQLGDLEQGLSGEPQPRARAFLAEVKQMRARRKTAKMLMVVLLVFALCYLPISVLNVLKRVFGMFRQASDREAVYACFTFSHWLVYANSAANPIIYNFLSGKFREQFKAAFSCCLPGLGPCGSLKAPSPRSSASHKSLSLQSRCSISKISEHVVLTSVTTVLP
Description: as §1, §2, §3, §4

Row | SMILES | activity in a rat model of post-traumatic stress disorder [1] | alertness, characterized by active wake and locomotion [2] | time spent in both REM and NREM sleep [2] | memory function [3] | IC50 (human orexin-2 receptor) [nM] | IC50 (human orexin-1 receptor) [nM]
1 | CNC(=O)[C@@H](c1ccccc1)N1CCc2cc(OC)c(OC)cc2[C@@H]1CCc1ccc(C(F)(F)F)cc1 [(2R)-2-{(1S)-6,7-dimethoxy-1-[2-(4-trifluoromethyl-phenyl)-ethyl]-3,4-dihydro-1H-isoquinolin-2-yl}-N-methyl-2-phenyl-acetamide] | active | decrease alertness | dose-dependently increase | enhance memory function | – | –
2 | COc1ccc(Cn2nccc2NC(=O)CSc2nnnn2-c2cccc(C)c2C)cc1 [Example 1, 2-[1-(2,3-Dimethyl-phenyl)-1H-tetrazol-5-ylsulfanyl]-N-[2-(4-methoxy-benzyl)-2H-pyrazol-3-yl]-acetamide] | – | – | – | – | 5 | 32
3 | COc1ccc(Cn2nccc2NC(=O)CSc2nnnn2-c2cccc(C)c2C)cc1C [Example 2, 2-[1-(2,3-Dimethyl-phenyl)-1H-tetrazol-5-ylsulfanyl]-N-[2-(4-methoxy-3-methyl-benzyl)-2H-pyrazol-3-yl]-acetamide] | – | – | – | – | 25 | 42
4 | COc1ccc(Cn2nccc2NC(=O)CSc2nnnn2-c2cccc(C)c2C)cc1OC [Example 10, N-[2-(3,4-Dimethoxy-benzyl)-2H-pyrazol-3-yl]-2-[1-(2,3-dimethyl-phenyl)-1H-tetrazol-5-ylsulfanyl]-acetamide] | – | – | – | – | 89 | 61
5 | Cc1ccccc1Cn1nccc1NC(=O)CSc1nnnn1-c1cccc(C)c1C [Example 22, 2-[1-(2,3-Dimethyl-phenyl)-1H-tetrazol-5-ylsulfanyl]-N-[2-(2-methyl-benzyl)-2H-pyrazol-3-yl]-acetamide] | – | – | – | – | 115 | 48
6 | COc1ccc(Cn2nccc2NC(=O)CSc2nnnn2-c2cc(C)ccc2C)cc1 [Example 46, 2-[1-(2,5-Dimethyl-phenyl)-1H-tetrazol-5-ylsulfanyl]-N-[2-(4-methoxy-benzyl)-2H-pyrazol-3-yl]-acetamide] | – | – | – | – | 6 | 11
7 | COc1ccc(-n2nnnc2SCC(=O)Nc2ccnn2Cc2ccc3c(c2)OCO3)c(OC)c1 [Example 62, N-(2-Benzo[1,3]dioxol-5-ylmethyl-2H-pyrazol-3-yl)-2-[1-(2,4-dimethoxy-phenyl)-1H-tetrazol-5-ylsulfanyl]-acetamide] | – | – | – | – | 1800 | 3440
8 | Cc1cccc(-n2nnnc2SCC(=O)Nc2ccnn2CC2CC2)c1C [Example 76, N-(2-Cyclopropylmethyl-2H-pyrazol-3-yl)-2-[1-(2,3-dimethyl-phenyl)-1H-tetrazol-5-ylsulfanyl]-acetamide] | – | – | – | – | 165 | 363
9 | CCC(C)Cn1nccc1NC(=O)CSc1nnnn1-c1cccc(C)c1C (stereo not drawn) [Example 77, 2-[1-(2,3-Dimethyl-phenyl)-1H-tetrazol-5-ylsulfanyl]-N-[2-(2-methyl-butyl)-2H-pyrazol-3-yl]-acetamide] | – | – | – | – | 613 | 295
10 | Cc1cccc(-n2nnnc2SCC(=O)Nc2ccnn2CCCc2ccc(OC(F)(F)F)c(F)c2)c1C [Example 85, 2-[1-(2,3-Dimethyl-phenyl)-1H-tetrazol-5-ylsulfanyl]-N-{2-[3-(3-fluoro-4-trifluoromethoxy-phenyl)-propyl]-2H-pyrazol-3-yl}-acetamide] | – | – | – | – | 146 | 1810
11 | Cc1ccc(C)c(-n2nnnc2SCC(=O)Nc2ccnn2CCc2ccccc2)c1 [Example 89, 2-[1-(2,5-Dimethyl-phenyl)-1H-tetrazol-5-ylsulfanyl]-N-(2-phenethyl-2H-pyrazol-3-yl)-acetamide] | – | – | – | – | 47 | 44
12 | COc1ccc(Cn2nccc2NC(=O)CCc2nnnn2-c2cccc3ccccc23)cc1 [Example 115, N-[2-(4-Methoxy-benzyl)-2H-pyrazol-3-yl]-3-(1-naphthalen-1-yl-1H-tetrazol-5-yl)-propionamide] | – | – | – | – | 41 | 25
13 | COc1ccc(-n2nccc2NC(=O)CCc2nnnn2-c2c(C)cc(C)cc2C)cc1 [Example 139, N-[2-(4-Methoxy-phenyl)-2H-pyrazol-3-yl]-3-[1-(2,4,6-trimethyl-phenyl)-1H-tetrazol-5-yl]-propionamide] | – | – | – | – | 530 | 796
14 | Cc1cccc(-n2nnnc2SCC(=O)Nc2ccnn2-c2ccc(Oc3ccccc3)cc2)c1C [Example 141, 2-[1-(2,3-Dimethyl-phenyl)-1H-tetrazol-5-ylsulfanyl]-N-[2-(4-phenoxy-phenyl)-2H-pyrazol-3-yl]-acetamide] | – | – | – | – | 19 | 85
15 | COc1ccc(-n2nccc2NC(=O)CSc2nnnn2-c2cccc(C)c2C)cn1 [Example 147, 2-[1-(2,3-Dimethyl-phenyl)-1H-tetrazol-5-ylsulfanyl]-N-[2-(6-methoxy-pyridin-3-yl)-2H-pyrazol-3-yl]-acetamide] | – | – | – | – | 8300 | 47
16 | COc1ccc(-n2nccc2NC(=O)CSc2nnnn2-c2c(Cl)cccc2Cl)cc1 [Example 152, 2-[1-(2,6-Dichloro-phenyl)-1H-tetrazol-5-ylsulfanyl]-N-[2-(4-methoxy-phenyl)-2H-pyrazol-3-yl]-acetamide] | – | – | – | – | 32 | 63
17 | Cc1cc(NC(=O)CSc2nnnn2-c2cccc(C)c2C)n(-c2ccccc2)n1 [Example 154, 2-[1-(2,3-Dimethyl-phenyl)-1H-tetrazol-5-ylsulfanyl]-N-(5-methyl-2-phenyl-2H-pyrazol-3-yl)-acetamide] | – | – | – | – | 654 | 7250
